Results published in PMC11219871, “Epigenetic-based differentiation therapy for Acute Myeloid Leukemia” (Nature Communications, 2024).

Key:
Test in all cases: Epigenetic panel (BPS Bioscience)
Type in all cases: biochemical
[1] = target: T1, EZH2 (Y641C) (Homo sapiens, UniProt Q15910, Y641C)
T1 construct: purchased BPS Bioscience; Eurofins (HDAC4, 5, 7-11)
From the text: (§1) The selectivity of CM-444 and CM-1758 against other epigenetic targets, including histone demethylase (JMJD2A, JMJD2B, JMJD2C, JMJD2D, JMJD2E, JMJD3, JMJD1A, LSD1, Jarid1A, Jarid1B, Jarid1C, FBXL10, FBXL11, JHDM1D, JMJD1B, PHF8, LSD2 and UTX); histone acetyltransferases (GCN5, P300); histone methyltransferases (G9a, GLP, MLL1, SET7/9, SUV39H1, SUV39H2, PRMT1, PRMT3, PRMT4, PRMT5, PRMT6, PRMT8, PRMT9, NSD1, NSD2, EZH1, EZH2, SETDB1, SETD2, SET8, SUV4-20H1, SMYD2, SMYD3, DOT1L, EZH2 (A677G), EZH2 (A677G), EZH2 (A738T), EZH2 (Y641S), EZH2 (P132S), EZH2 (Y641C), EZH2 (Y641F), EZH2 (Y641H), EZH2 (Y641N)); bromodomains (ATAD2B, ATAD2A, BRD1, BRD9, BPTF/FALZ, CeCR2, BRPF3, BRD3 (BD1 + BD2), BAZ2B, WDR9, TAF1 (BD2), TAF1L (BD2), TAF1L (BD1 + BD2), BRD2 (BD1), BRD2 (BD2), BRD2 (BD1 + BD2), BRD3 (BD1), BRD3 (BD2), BRD4 (BD1), BRD4 (BD2), BRD4 (BD1 + BD2), BRDT (BD1), BRDT (BD1 + BD2), CREBBP, SMARCA2A, SMARCA4/BRG1); DNA methyltranferases (DNMT1, DNMT3A/3L and DNMT3B/3L), and sirtuin histone deacetylases (SIRT1, SIRT2, SIRT3, SIRT5 and SIRT6), were determined by BPS Bioscience (http://www.bpsbioscience.com/index.ph). Binding experiments were performed in duplicate at a concentration of 10 μM.

[2] = target: T2, Jarid1A (Homo sapiens, UniProt P29375)
T2 construct: purchased BPS Bioscience; Eurofins (HDAC4, 5, 7-11)
From the text: as §1

[3] = target: T3, SMYD2 (Homo sapiens, UniProt Q9NRG4)
T3 construct: purchased BPS Bioscience; Eurofins (HDAC4, 5, 7-11)
From the text: as §1

[4] = target: T4, PHF8 (Homo sapiens, UniProt Q9UPP1)
T4 construct: purchased BPS Bioscience; Eurofins (HDAC4, 5, 7-11)
From the text: as §1

[5] = target: T5, Jarid1B (Homo sapiens, UniProt Q9UGL1)
T5 construct: purchased BPS Bioscience; Eurofins (HDAC4, 5, 7-11)
From the text: as §1

[6] = target: T6, P300 (Homo sapiens, UniProt Q09472)
T6 construct: purchased BPS Bioscience; Eurofins (HDAC4, 5, 7-11)
From the text: as §1

[7] = target: T7, EZH2 (A738T) (Homo sapiens, UniProt Q15910)
T7 construct: purchased BPS Bioscience; Eurofins (HDAC4, 5, 7-11)
From the text: as §1

[8] = target: T8, DNMT3A/3L (Homo sapiens, UniProt Q9Y6K1)
T8 construct: purchased BPS Bioscience (contracted assay service)
From the text: as §1

[9] = target: T9, JMJD2D (Homo sapiens, UniProt Q6B0I6)
T9 construct: purchased BPS Bioscience; Eurofins (HDAC4, 5, 7-11)
From the text: as §1

[10] = target: T10, JMJD3 (Homo sapiens, UniProt O15054)
T10 construct: purchased BPS Bioscience; Eurofins (HDAC4, 5, 7-11)
T10 sequence (O15054 whole entry): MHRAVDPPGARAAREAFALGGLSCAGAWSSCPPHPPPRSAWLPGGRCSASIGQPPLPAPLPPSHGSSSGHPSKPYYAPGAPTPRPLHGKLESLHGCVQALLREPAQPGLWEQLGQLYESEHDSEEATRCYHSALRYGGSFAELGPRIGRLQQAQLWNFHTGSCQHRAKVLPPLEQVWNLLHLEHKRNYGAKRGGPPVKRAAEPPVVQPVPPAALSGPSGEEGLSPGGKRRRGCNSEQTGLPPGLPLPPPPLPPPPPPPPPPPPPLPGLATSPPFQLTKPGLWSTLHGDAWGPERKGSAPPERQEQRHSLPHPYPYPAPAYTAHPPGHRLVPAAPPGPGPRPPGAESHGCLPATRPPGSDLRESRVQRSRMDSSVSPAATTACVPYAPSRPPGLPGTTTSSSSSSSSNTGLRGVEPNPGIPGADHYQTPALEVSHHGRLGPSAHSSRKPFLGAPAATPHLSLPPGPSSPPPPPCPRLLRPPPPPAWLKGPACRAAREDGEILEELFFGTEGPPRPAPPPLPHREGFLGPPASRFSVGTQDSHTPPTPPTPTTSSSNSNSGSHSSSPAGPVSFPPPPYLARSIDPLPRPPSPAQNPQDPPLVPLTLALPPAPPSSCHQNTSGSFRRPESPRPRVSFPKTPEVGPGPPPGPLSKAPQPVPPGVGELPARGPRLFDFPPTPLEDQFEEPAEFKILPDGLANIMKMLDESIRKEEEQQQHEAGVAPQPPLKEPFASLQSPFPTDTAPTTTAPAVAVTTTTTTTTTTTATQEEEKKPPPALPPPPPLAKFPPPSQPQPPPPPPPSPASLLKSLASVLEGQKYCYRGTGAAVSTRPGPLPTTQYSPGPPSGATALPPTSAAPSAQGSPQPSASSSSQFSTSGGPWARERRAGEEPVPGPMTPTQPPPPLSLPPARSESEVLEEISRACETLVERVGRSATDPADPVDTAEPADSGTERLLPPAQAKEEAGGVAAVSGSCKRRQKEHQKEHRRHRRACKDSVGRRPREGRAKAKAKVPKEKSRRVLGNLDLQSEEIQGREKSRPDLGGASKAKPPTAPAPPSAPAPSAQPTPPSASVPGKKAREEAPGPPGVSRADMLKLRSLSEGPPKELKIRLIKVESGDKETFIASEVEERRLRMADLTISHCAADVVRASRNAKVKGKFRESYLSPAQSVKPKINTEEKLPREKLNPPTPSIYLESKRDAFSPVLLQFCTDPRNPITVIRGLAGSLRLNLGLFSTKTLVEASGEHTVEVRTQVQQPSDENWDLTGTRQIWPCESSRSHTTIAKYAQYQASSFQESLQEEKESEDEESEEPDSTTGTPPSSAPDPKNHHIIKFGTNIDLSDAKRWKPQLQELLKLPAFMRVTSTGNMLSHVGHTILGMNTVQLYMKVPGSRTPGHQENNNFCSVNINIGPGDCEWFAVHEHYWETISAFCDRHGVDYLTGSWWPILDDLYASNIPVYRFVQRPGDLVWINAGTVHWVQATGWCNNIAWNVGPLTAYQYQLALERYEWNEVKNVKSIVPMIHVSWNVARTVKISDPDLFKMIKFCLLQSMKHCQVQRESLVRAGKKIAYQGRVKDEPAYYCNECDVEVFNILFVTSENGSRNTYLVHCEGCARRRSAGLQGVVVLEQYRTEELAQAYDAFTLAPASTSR
From the text: as §1

[11] = target: T11, Jarid1C (Homo sapiens, UniProt P41229)
T11 construct: purchased BPS Bioscience; Eurofins (HDAC4, 5, 7-11)
From the text: as §1

[12] = target: T12, EZH1 (Homo sapiens, UniProt Q92800)
T12 construct: purchased BPS Bioscience; Eurofins (HDAC4, 5, 7-11)
From the text: as §1

[13] = target: T13, SIRT2 (Homo sapiens, UniProt Q8IXJ6)
T13 construct: purchased BPS Bioscience; Eurofins (HDAC4, 5, 7-11)
From the text: as §1

[14] = target: T14, SIRT1 (Homo sapiens, UniProt Q96EB6)
T14 construct: purchased BPS Bioscience; Eurofins (HDAC4, 5, 7-11)
From the text: as §1

[15] = target: T15, SET8 (Homo sapiens, UniProt Q9NQR1)
T15 construct: purchased BPS Bioscience; Eurofins (HDAC4, 5, 7-11)
T15 sequence (Q9NQR1 whole entry): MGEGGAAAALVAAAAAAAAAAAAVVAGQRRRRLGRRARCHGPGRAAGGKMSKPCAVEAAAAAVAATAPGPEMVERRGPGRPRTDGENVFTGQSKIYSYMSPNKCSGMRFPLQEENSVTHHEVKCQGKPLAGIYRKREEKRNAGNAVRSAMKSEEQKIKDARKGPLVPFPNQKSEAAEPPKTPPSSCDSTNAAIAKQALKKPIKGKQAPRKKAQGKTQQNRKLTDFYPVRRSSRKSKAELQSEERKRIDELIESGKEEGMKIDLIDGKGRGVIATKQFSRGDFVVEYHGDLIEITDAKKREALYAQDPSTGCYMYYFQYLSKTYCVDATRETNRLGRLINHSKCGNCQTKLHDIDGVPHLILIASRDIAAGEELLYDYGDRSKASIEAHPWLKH
From the text: as §1

[16] = target: T16, NSD2 (Homo sapiens, UniProt O96028)
T16 construct: purchased BPS Bioscience; Eurofins (HDAC4, 5, 7-11)
From the text: as §1

[17] = target: T17, FBXL11 (Homo sapiens, UniProt Q9Y2K7)
T17 construct: purchased BPS Bioscience; Eurofins (HDAC4, 5, 7-11)
From the text: as §1

[18] = target: T18, JMJD2B (Homo sapiens, UniProt O94953)
T18 construct: purchased BPS Bioscience; Eurofins (HDAC4, 5, 7-11)
T18 sequence (O94953 whole entry): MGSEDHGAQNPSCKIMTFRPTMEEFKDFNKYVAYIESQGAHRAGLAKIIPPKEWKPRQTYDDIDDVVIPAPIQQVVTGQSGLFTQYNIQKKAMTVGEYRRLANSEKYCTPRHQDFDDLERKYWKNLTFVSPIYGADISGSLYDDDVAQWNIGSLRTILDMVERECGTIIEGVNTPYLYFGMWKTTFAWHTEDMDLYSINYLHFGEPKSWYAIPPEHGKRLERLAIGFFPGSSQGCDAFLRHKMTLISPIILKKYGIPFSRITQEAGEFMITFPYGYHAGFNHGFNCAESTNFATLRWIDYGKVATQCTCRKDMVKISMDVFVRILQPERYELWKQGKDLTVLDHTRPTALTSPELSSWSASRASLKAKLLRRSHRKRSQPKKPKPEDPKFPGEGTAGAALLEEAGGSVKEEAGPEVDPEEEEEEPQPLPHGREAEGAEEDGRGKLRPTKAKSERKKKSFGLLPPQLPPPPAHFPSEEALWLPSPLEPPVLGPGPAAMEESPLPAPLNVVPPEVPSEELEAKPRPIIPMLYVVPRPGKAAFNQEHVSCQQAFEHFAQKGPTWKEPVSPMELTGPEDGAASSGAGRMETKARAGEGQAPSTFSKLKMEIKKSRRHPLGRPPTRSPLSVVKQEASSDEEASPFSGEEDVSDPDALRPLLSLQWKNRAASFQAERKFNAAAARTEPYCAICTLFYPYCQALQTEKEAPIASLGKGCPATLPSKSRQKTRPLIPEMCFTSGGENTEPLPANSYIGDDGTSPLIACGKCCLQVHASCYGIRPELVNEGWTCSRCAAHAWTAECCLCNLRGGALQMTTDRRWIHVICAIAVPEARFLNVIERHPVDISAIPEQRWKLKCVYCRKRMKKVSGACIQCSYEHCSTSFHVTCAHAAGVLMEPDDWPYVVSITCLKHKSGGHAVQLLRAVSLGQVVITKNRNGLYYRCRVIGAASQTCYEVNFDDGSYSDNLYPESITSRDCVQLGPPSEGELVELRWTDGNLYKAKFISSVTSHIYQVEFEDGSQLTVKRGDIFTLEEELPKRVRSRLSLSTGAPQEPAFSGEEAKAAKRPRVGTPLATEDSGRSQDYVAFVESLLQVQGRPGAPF
From the text: as §1

[19] = target: T19, SUV39H1 (Homo sapiens, UniProt O43463)
T19 construct: purchased BPS Bioscience; Eurofins (HDAC4, 5, 7-11)
From the text: as §1

[20] = target: T20, JMJD2A (Homo sapiens, UniProt O75164)
T20 construct: purchased BPS Bioscience; Eurofins (HDAC4, 5, 7-11)
T20 sequence (O75164 whole entry): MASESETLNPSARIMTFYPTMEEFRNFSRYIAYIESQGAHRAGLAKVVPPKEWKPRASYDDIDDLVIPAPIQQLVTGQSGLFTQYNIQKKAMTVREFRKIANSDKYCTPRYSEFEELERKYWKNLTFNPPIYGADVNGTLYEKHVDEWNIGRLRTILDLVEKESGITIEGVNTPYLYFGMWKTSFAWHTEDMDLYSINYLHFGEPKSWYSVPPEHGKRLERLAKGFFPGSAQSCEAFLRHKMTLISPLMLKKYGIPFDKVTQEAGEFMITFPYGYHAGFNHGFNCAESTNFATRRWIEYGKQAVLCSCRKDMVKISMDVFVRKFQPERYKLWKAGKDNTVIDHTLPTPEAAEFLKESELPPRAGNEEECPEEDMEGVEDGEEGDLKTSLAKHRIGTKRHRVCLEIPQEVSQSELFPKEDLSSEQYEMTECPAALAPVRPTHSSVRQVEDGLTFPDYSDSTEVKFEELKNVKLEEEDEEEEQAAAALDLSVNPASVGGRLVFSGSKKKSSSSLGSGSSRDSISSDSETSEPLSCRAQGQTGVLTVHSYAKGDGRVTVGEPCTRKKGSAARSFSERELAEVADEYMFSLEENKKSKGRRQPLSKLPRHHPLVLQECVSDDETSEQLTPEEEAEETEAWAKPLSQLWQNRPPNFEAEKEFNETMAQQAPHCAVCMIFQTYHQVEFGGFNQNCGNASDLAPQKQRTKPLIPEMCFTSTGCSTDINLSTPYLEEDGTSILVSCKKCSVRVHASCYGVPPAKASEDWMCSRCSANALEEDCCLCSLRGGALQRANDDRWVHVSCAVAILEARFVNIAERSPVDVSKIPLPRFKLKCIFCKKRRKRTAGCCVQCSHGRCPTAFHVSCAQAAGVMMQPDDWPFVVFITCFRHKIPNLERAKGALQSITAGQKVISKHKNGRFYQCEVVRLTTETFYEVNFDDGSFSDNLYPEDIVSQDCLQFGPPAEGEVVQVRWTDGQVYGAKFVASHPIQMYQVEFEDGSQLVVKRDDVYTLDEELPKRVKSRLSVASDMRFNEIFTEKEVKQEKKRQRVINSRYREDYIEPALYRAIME
From the text: as §1

[21] = target: T21, PRMT8 (Homo sapiens, UniProt Q9NR22)
T21 construct: purchased BPS Bioscience; Eurofins (HDAC4, 5, 7-11)
From the text: as §1

[22] = target: T22, LSD1 (Homo sapiens, UniProt O60341)
T22 construct: purchased BPS Bioscience; Eurofins (HDAC4, 5, 7-11)
From the text: as §1

[23] = target: T23, GCN5 (Homo sapiens, UniProt Q92830); settings: read-out: % of inhibition
T23 construct: purchased BPS Bioscience; Eurofins (HDAC4, 5, 7-11)
From the text: as §1

[24] = target: T24, SIRT3 (Homo sapiens, UniProt Q9NTG7)
T24 construct: purchased BPS Bioscience; Eurofins (HDAC4, 5, 7-11)
From the text: as §1

[25] = target: T25, JMJD2C (Homo sapiens, UniProt Q9H3R0)
T25 construct: purchased BPS Bioscience; Eurofins (HDAC4, 5, 7-11)
From the text: as §1

[26] = target: T26, SUV4-20H1 (Homo sapiens, UniProt Q4FZB7)
T26 construct: purchased BPS Bioscience; Eurofins (HDAC4, 5, 7-11)
T26 sequence (Q4FZB7 whole entry): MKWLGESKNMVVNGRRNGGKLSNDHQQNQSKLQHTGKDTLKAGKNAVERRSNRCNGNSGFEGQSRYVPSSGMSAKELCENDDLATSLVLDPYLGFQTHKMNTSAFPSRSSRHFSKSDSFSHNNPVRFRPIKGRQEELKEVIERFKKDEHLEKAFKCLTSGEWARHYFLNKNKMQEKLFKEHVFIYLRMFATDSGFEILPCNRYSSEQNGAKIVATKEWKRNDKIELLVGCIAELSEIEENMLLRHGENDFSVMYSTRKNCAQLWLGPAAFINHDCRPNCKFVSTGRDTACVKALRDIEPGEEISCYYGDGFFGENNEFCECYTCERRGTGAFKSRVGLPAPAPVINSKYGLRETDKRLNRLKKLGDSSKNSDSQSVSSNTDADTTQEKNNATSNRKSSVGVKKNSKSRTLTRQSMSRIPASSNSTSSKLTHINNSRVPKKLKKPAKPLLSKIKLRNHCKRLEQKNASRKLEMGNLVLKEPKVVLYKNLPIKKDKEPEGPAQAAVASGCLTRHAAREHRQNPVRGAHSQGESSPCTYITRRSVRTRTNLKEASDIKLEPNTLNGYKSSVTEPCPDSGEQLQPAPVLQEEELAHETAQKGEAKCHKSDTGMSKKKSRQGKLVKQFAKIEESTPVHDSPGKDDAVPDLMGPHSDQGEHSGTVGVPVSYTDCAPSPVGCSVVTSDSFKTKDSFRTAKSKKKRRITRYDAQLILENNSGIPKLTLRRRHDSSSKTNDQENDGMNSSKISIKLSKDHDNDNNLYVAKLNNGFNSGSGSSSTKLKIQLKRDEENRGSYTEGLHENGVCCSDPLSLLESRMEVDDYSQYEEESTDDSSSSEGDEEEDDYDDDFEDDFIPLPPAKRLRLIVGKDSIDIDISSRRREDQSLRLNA
From the text: as §1

[27] = target: T27, DOT1L (Homo sapiens, UniProt Q8TEK3)
T27 construct: purchased BPS Bioscience; Eurofins (HDAC4, 5, 7-11)
From the text: as §1

[28] = target: T28, DNMT3B/3L (Homo sapiens, UniProt Q9UBC3)
T28 construct: purchased BPS Bioscience (contracted assay service)
From the text: as §1

[29] = target: T29, PRMT1 (Homo sapiens, UniProt Q99873)
T29 construct: purchased BPS Bioscience; Eurofins (HDAC4, 5, 7-11)
From the text: as §1

[30] = target: T30, SIRT5 (Homo sapiens, UniProt Q9NXA8)
T30 construct: purchased BPS Bioscience; Eurofins (HDAC4, 5, 7-11)
From the text: as §1

[31] = target: T31, SMYD3 (Homo sapiens, UniProt Q9H7B4)
T31 construct: purchased BPS Bioscience; Eurofins (HDAC4, 5, 7-11)
From the text: as §1

Structure (SMILES)	inhibition at 10 µM [1]	inhibition at 10 µM [2]	inhibition at 10 µM [3]	inhibition at 10 µM [4]	inhibition at 10 µM [5]	inhibition at 10 µM [6]	inhibition at 10 µM [7]	inhibition at 10 µM [8]	inhibition at 10 µM [9]	inhibition at 10 µM [10]	inhibition at 10 µM [11]	inhibition at 10 µM [12]	inhibition at 10 µM [13]	inhibition at 10 µM [14]	inhibition at 10 µM [15]	inhibition at 10 µM [16]	inhibition at 10 µM [17]	inhibition at 10 µM [18]	inhibition at 10 µM [19]	inhibition at 10 µM [20]	also measured
COc1cc2nc(-c3ccc(C)o3)cc(NCC3CCN(c4ncc(C(=O)NO)cn4)CC3)c2cc1OC [CM-444, 2-[4-[[[6,7-dimethoxy-2-(5-methyl-2-furyl)-4-quinolyl]amino]methyl]-1-piperidyl]pyrimidine-5-carbohydroxamic acid]	4%	16%	9%	6%	5%	10%	5%	92%	5%	21%	2%	9%	14%	13%	4%	35%	33%	1%	1%	21%	IC50 [8]: 1800 nM; inhibition at 10 µM [21]: 0%; inhibition at 10 µM [22]: 16%; inhibition at 10 µM [23]: 31%; inhibition at 10 µM [24]: 0%; inhibition at 10 µM [25]: 4%; inhibition at 10 µM [26]: 2%; inhibition at 10 µM [27]: 0%; IC50 [28]: 2300 nM; inhibition at 10 µM [28]: 68%; inhibition at 10 µM [29]: 0%; inhibition at 10 µM [30]: 7%; inhibition at 10 µM [31]: 35%
COc1cc2nc(-c3cc(C)oc3C)cc(NCC3CCN(c4ncc(C(=O)NO)cn4)CC3)c2cc1OC [CM-1758, 2-[4-[[[2-(2,5-dimethyl-3-furyl)-6,7-dimethoxy-4-quinolyl]amino]methyl] -1-piperidyl]pyrimidine-5-carbohydroxamic acid]	0%	47%	16%	12%	29%	0%	5%	44%	0%	20%	26%	0%	0%	1%	9%	16%	2%	10%	1%	20%	inhibition at 10 µM [21]: 0%; inhibition at 10 µM [22]: 20%; inhibition at 10 µM [23]: 12%; inhibition at 10 µM [24]: 9%; inhibition at 10 µM [25]: 9%; inhibition at 10 µM [26]: 1%; inhibition at 10 µM [27]: 0%; inhibition at 10 µM [28]: 20%; inhibition at 10 µM [29]: 0%; inhibition at 10 µM [30]: 2%; inhibition at 10 µM [31]: 21%
